How the values were obtained:
Format in all cases: cell-based
[1] = PHH natural infection assay, cytotoxicity (Cell Counting Kit-8); conditions: HBV-infected primary human hepatocytes, CCK8
Protocol: (§1) Detailed procedures regarding primary human hepatocyte (PHH) HBV natural infection assay are described as below. One tube of frozen PHH (10 million cells) is thawed in 37° C. water bath and then transferred to 20 mL of PHH thawing medium (Sigma, InVitroGRO HT Medium, Cat. S03319) with gently mixing. The cells were then centrifuged at […] for 5 min, the supernatant was discarded and the tube was refilled with 25 mL of PHH plating medium (Sigma, InVitroGRO CP Medium, Cat. S03317). The tube was shaken very gently to re-suspend all cells, and then 50 µl of cells were transferred to each well 384-well collagen I coated plate with appropriate liquid handling equipment, e.g. Integra VIAFLO384 or Agilent Bravo. The cells were then cultured for 24 hours in a cell incubator. For HBV infection, after PHH attachment on the culture plate, the plating medium was removed and replenished with PHH culture medium containing HBV virus. The PHH culture medium was prepared with Dulbecco’s Modified Eagle Medium (DMEM)/F12 (1: 1 in volume ratio) containing 10% fetal bovine serum (Gibco, Cat.10099141), 5 ng/mL human epidermal growth factor (Gibco, Cat.PHG0311L), 20 ng/mL dexamethasone (Sigma, Cat.D4902-100 mg), 250 ng/mL human recombinant insulin (Gibco, Cat.41400045) and 100 U/mL penicillin. HBV virus at 200 genome equivalent (GE) per cell with 4% PEG8000 (Sigma, Cat.P1458) containing culture medium were added to the PHH culture medium for infection. The cells were then cultured for 24 hours in cell incubator. Then the cell culture supernatant was removed. The HBV-infected PHH were cultured with sandwich culture method with PHH culture medium containing 1% DMSO and 0.25 mg/mL matrix gel for 72 hours. The supernatant was then refreshed with PHH culture medium containing different concentrations of testing compounds for two times with 72-hour interval. At the end of treatment, the supernatant was collected for viral markers measurements, including HBsAg, HBeAg, HBV DNA and cytotoxicity. HBsAg and HBeAg were detected using alphalisa method using their specific antibodies. For HBV DNA detection, HBV DNA Quantitative Fluorescence Diagnostic Kit (Sansure Biotech Inc.) was used following the manufacture’s protocol. Cytotoxicity was determined using Cell Counting Kit-8 (CCK8, Dojindo Molecular Technologies, Inc.).

HBsAg = experiment: PHH natural infection assay, HBsAg (alphalisa); conditions: Hepatitis B virus, Hepatocyte, 72 h, read-out: HBsAg IC50
Protocol: as §1
(§2) The compounds of the present invention were tested for their capacity to inhibit HBsAg and HBeAg as described herein.

HBeAg = experiment: PHH natural infection assay, HBeAg (alphalisa); conditions: Hepatitis B virus, Hepatocyte, 72 h, read-out: HBeAg IC50
Protocol: as §1, §2

| SMILES | CC50 at 144 h [1] [nM] | IC50 (HBsAg) [nM] | IC50 (HBeAg) [nM] |
| --- | --- | --- | --- |
| CC(C)(C)CC(=O)Nc1ccc(-c2nnc(-c3ccccc3)o2)cc1 [Example 29, 3,3-dimethyl-N-[4-(5-phenyl-1,3,4-oxadiazol-2-yl)phenyl]butanamide] | > 100000 | 5100 | 9570 |
| O=C(Nc1ccc(-c2nnc(-c3ccccc3)o2)cc1)c1ncco1 [Example 26, N-[4-(5-phenyl-1,3,4-oxadiazol-2-yl)phenyl]oxazole-2-carboxamide] | > 100000 | 910 | 1420 |
| N#Cc1ccc(C(=O)Nc2ccc(-c3nnc(-c4ccccc4)o3)cc2)cc1 [Example 18, 4-cyano-N-[4-(5-phenyl-1,3,4-oxadiazol-2-yl)phenyl]benzamide] | > 100000 | 2540 | 2260 |
| CC(C)(C)C(=O)Nc1ccc(-c2nnc(-c3ccccc3)o2)cc1 [Example 28, 2,2-dimethyl-N-[4-(5-phenyl-1,3,4-oxadiazol-2-yl)phenyl]propanamide] | > 100000 | 7650 | 4230 |
| O=C(Nc1ccc(-c2nnc(-c3ccccc3)o2)cc1)C1CCCC1 [Example 7, N-[4-(5-phenyl-1,3,4-oxadiazol-2-yl)phenyl]cyclopentanecarboxamide] | > 100000 | 510 | 770 |
| COc1cc(C(=O)Nc2ccc(-c3nnc(-c4ccccc4)o3)cc2)ccn1 [Example 21, 2-methoxy-N-[4-(5-phenyl-1,3,4-oxadiazol-2-yl)phenyl]pyridine-4-carboxamide] | > 100000 | 2000 | 1910 |
| COc1cc(-c2nnc(-c3ccccc3)o2)ccc1N [Example 31, 2-Methoxy-4-(5-phenyl-1,3,4-oxadiazol-2-yl)aniline] | > 100000 | 1490 | 4170 |
| Cc1cc(Cl)cc(C(=O)Nc2ccc(-c3nnc(-c4ccccc4)o3)cc2)c1 [Example 11, 3-chloro-5-methyl-N-[4-(5-phenyl-1,3,4-oxadiazol-2-yl)phenyl]benzamide] | > 100000 | 6400 | 12600 |
| Cc1cc(-c2nnc(-c3ccccc3)o2)ccc1N [Example 30, 2-methyl-4-(5-phenyl-1,3,4-oxadiazol-2-yl)aniline] | > 100000 | 1430 | 3210 |
| CN(C)c1ccc(-c2nnc(-c3ccccc3)o2)cc1 [Example 33, N,N-dimethyl-4-(5-phenyl-1,3,4-oxadiazol-2-yl)aniline] | > 100000 | 7690 | 91600 |
| CCCCC(=O)Nc1ccc(-c2nnc(-c3ccccc3)o2)cc1 [Example 3, N-[4-(5-phenyl-1,3,4-oxadiazol-2-yl)phenyl]pentanamide] | > 100000 | 2390 | 3010 |
| O=C(Nc1ccc(-c2nnc(-c3ccccc3)o2)cc1)c1cccnn1 [Example 25, N-[4-(5-phenyl-1,3,4-oxadiazol-2-yl)phenyl]pyridazine-3-carboxamide] | > 100000 | 1090 | 1270 |
| Nc1ccc(-c2nnc(-c3ccccc3)o2)cc1F [Example 32, 2-Fluoro-4-(5-phenyl-1,3,4-oxadiazol-2-yl)aniline] | > 100000 | 2390 | 2810 |
| COCCC(=O)Nc1ccc(-c2nnc(-c3ccccc3)o2)cc1 [Example 5, 3-methoxy-N-[4-(5-phenyl-1,3,4-oxadiazol-2-yl)phenyl]propanamide] | > 100000 | 590 | 690 |
| O=C(Nc1ccc(-c2nnc(-c3ccccc3)o2)cc1)c1ccnc(Cl)c1 [Example 20, 2-chloro-N-[4-(5-phenyl-1,3,4-oxadiazol-2-yl)phenyl]pyridine-4-carboxamide] | > 100000 | 1390 | 2560 |
| O=C(Nc1ccc(-c2nnc(-c3ccccc3)o2)cc1)c1cccc(OC(F)F)c1 [Example 17, 3-(difluoromethoxy)-N-[4-(5-phenyl-1,3,4-oxadiazol-2-yl)phenyl]benzamide] | > 100000 | 1460 | 2790 |
| O=C(Nc1ccc(-c2nnc(-c3ccccc3)o2)cc1)c1ccncc1 [Example 19, N-[4-(5-phenyl-1,3,4-oxadiazol-2-yl)phenyl]pyridine-4-carboxamide] | > 100000 | 4800 | 2800 |
| O=C(Nc1ccc(-c2nnc(-c3ccccc3)o2)cc1)c1ccccc1OC(F)(F)F [Example 14, N-[4-(5-phenyl-1,3,4-oxadiazol-2-yl)phenyl]-2-(trifluoromethoxy)benzamide] | > 100000 | 3590 | 2880 |
| O=C(Nc1ccc(-c2nnc(-c3ccccc3)o2)cc1)c1ccccc1Cl [Example 9, 2-chloro-N-[4-(5-phenyl-1,3,4-oxadiazol-2-yl)phenyl]benzamide] | > 100000 | 8230 | 1690 |
| CC(C)CC(=O)Nc1ccc(-c2nnc(-c3ccccc3)o2)cc1 [Example 4, 3-methyl-N-[4-(5-phenyl-1,3,4-oxadiazol-2-yl)phenyl]butanamide] | > 100000 | 2800 | 3430 |
| CCCC(=O)Nc1ccc(-c2nnc(-c3ccccc3)o2)cc1 [Example 2, N-[4-(5-phenyl-1,3,4-oxadiazol-2-yl)phenyl]butanamide] | > 100000 | 3000 | 43100 |
| CC(C)C(=O)Nc1ccc(-c2nnc(-c3ccccc3)o2)cc1 [Example 6, 2-methyl-N-[4-(5-phenyl-1,3,4-oxadiazol-2-yl)phenyl]propanamide] | > 100000 | 1330 | 2200 |
| O=C(Nc1ccc(-c2nnc(-c3ccccc3)o2)cc1)c1ccc(Cl)cn1 [Example 23, 5-chloro-N-[4-(5-phenyl-1,3,4-oxadiazol-2-yl)phenyl]pyridine-2-carboxamide] | > 100000 | 1230 | 2120 |
| O=C(Nc1ccc(-c2nnc(-c3ccccc3)o2)cc1)c1nccs1 [Example 27, N-[4-(5-phenyl-1,3,4-oxadiazol-2-yl)phenyl]thiazole-2-carboxamide] | > 100000 | 1520 | 1710 |
| Cc1cc(F)cc(C(=O)Nc2ccc(-c3nnc(-c4ccccc4)o3)cc2)c1 [Example 10, 3-fluoro-5-methyl-N-[4-(5-phenyl-1,3,4-oxadiazol-2-yl)phenyl]benzamide] | > 100000 | 1610 | 2170 |
| CCC(=O)Nc1ccc(-c2nnc(-c3ccccc3)o2)cc1 [Example 1, N-[4-(5-phenyl-1,3,4-oxadiazol-2-yl)phenyl]propanamide] | > 100000 | 1190 | 4850 |
| O=C(Nc1ccc(-c2nnc(-c3ccccc3)o2)cc1)c1ccccc1OC(F)F [Example 15, 2-(difluoromethoxy)-N-[4-(5-phenyl-1,3,4-oxadiazol-2-yl)phenyl]benzamide] | > 100000 | 1940 | 1940 |
| O=C(Nc1ccc(-c2nnc(-c3ccccc3)o2)cc1)c1ccccc1F [Example 8, 2-fluoro-N-[4-(5-phenyl-1,3,4-oxadiazol-2-yl)phenyl]benzamide] | > 100000 | 4170 | 5060 |

Source: patent publication US20230312491A1, “N-SUBSTITUTED 4-(5-PHENYL-1,3,4-OXADIAZOL-2-YL)ANILINE FOR THE TREATMENT AND PROPHYLAXIS OF HEPATITIS B VIRUS INFECTION” (priority 2020, published 2023)
